In patent US10538555B2, “Macrocyclic inhibitors of the PD-1/PD-L1 and CD80(B7-1)/PD-L1 protein/protein interactions” (BRISTOL-MYERS SQUIBB COMPANY, priority 2014, dated 2020):
*1 amine or outer side, *2 acyl side, *3 side chain or, on linkers, in order; H or OH if unused. Where a SMILES comes first, the peptide text is derived from it. Bridges are numbered along the chain shown (N, C = ends). [ ]: non-standard residue; d: D form. The star is where a group is joined. X5 = O=C(O)CC[C@H](N[*:1])C(=O)C1C[C@H](O)C[C@H]1C(=O)[*:2]; Pro(trans-4-F) = O=C(O)[C@@H]1C[C@@H](F)CN1; Phe(4-CN) = N#Cc1ccc(C[C@H](N)C(=O)O)cc1; Phe(4-Cl) = N[C@@H](Cc1ccc(Cl)cc1)C(=O)O; Phe(4-F) = N[C@@H](Cc1ccc(F)cc1)C(=O)O; Hyp = O=C(O)[C@@H]1C[C@@H](O)CN1; NMeNle = CCCC[C@H](NC)C(=O)O; NMeA = CN[C@@H](C)C(=O)O; Orn = NCCC[C@H](N)C(=O)O; Dab = NCC[C@H](N)C(=O)O; Propionyl = CCC(=O)*

The compounds below were run against T1, Human PD-L1/PD-1 (Homo sapiens, UniProt Q9NZQ7) (assay: HTRF Human PD-L1/PD-1 binding assay (PD-1-Ig/PD-L1-His)). Conditions: PD-L1-His 10 nM, PD-1-Ig 20 nM; class symbol; read-out: HTRF Human PD-L1/PD-1 Binding Assay IC50 Range.
T1 construct: TVMV protease cleavage site (C); made in house; host or cells: HEK293T cells
T1 sequence (Q9NZQ7 with tags, fused parts or gaps): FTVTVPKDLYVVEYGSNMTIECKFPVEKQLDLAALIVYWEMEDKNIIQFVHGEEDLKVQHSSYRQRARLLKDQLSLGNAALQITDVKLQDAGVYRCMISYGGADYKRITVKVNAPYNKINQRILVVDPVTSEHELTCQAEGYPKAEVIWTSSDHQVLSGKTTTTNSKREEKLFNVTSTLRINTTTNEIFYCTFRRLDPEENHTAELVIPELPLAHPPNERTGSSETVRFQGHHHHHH
In short: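 HTRF read-out (665/620 nm ratio) after 30 min equilibration with Eu-cryptate anti-Ig mAb (1 nM) and APC anti-His mAb (20 nM). Peptides preincubated 15 min with PD-L1-His (10 nM), then PD-1-Ig (20 nM) added for 15 min.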
In the case of `CCCC[C@H]1C(=O)N(C)[C@@H](CCCC)C(=O)N[C@@H](CCCNC(=N)N)C(=O)N[C@H](C(=O)NCC(N)=O)CSCC(=O)N[C@@H](Cc2ccc(C#N)cc2)C(=O)N(C)[C@@H](C)C(=O)N[C@@H](CC(N)=O)C(=O)N2CCC[C@H]2C(=O)N[C@@H](Cc2cnc[nH]2)C(=O)N[C@@H](CCC(=O)O)C(=O)C2C[C@H](O)C[C@H]2C(=O)N[C@@H](Cc2c[nH]c3ccccc23)C(=O)N[C@@H](CCN)C(=O)N[C@@H](Cc2c[nH]c3ccccc23)C(=O)N1C` (some centres unmarked) [Example 7077] ({CH2CO}-[Phe(4-CN)][NMeA]NPH[X5]W[Dab]W[NMeNle][NMeNle]RCG-NH2; thioether N-13), the IC50 is reported as 1 to 9.9 nM.
For `CCCC[C@H]1C(=O)N(C)[C@@H](CCCC)C(=O)N[C@@H](CCCNC(=N)N)C(=O)N[C@H](C(=O)NCC(N)=O)CSCC(=O)N[C@@H](Cc2ccc(C#N)cc2)C(=O)N(C)[C@@H](C)C(=O)N[C@@H](CC(N)=O)C(=O)N2CCC[C@H]2C(=O)N[C@@H](Cc2cnc[nH]2)C(=O)N[C@@H](CCC(=O)O)C(=O)N2C[C@H](O)C[C@H]2C(=O)N[C@@H](Cc2c[nH]c3ccccc23)C(=O)N[C@@H](CO)C(=O)N[C@@H](Cc2c[nH]c3ccccc23)C(=O)N1C` [Example 7078] ({CH2CO}-[Phe(4-CN)][NMeA]NPHE[Hyp]WSW[NMeNle][NMeNle]RCG-NH2; thioether N-14), the IC50 was 10 to 99.9 nM.
`CCCC[C@H]1C(=O)N(C)[C@@H](CCCC)C(=O)N[C@@H](CCCNC(=N)N)C(=O)N[C@H](C(=O)NCC(N)=O)CSCC(=O)N[C@@H](Cc2ccc(Cl)cc2)C(=O)N(C)[C@@H](C)C(=O)N[C@@H](CC(N)=O)C(=O)N2CCC[C@H]2C(=O)N[C@@H](Cc2cnc[nH]2)C(=O)N[C@@H](CCC(=O)O)C(=O)C2C[C@H](O)C[C@H]2C(=O)N[C@@H](Cc2c[nH]c3ccccc23)C(=O)N[C@@H](CCN)C(=O)N[C@@H](Cc2c[nH]c3ccccc23)C(=O)N1C` (some centres unmarked) [Example 7079] ({CH2CO}-[Phe(4-Cl)][NMeA]NPH[X5]W[Dab]W[NMeNle][NMeNle]RCG-NH2; thioether N-13) gave an IC50 of 1 to 9.9 nM.
With `CCCC[C@H]1C(=O)N(C)[C@@H](CCCC)C(=O)N[C@@H](CCCNC(=N)N)C(=O)N[C@H](C(=O)NCC(N)=O)CSCC(=O)N[C@@H](Cc2ccc(Cl)cc2)C(=O)N(C)[C@@H](C)C(=O)N[C@@H](CC(N)=O)C(=O)N2CCC[C@H]2C(=O)N[C@@H](Cc2cnc[nH]2)C(=O)N[C@@H](CCC(=O)O)C(=O)N2C[C@H](O)C[C@H]2C(=O)N[C@@H](Cc2c[nH]c3ccccc23)C(=O)N[C@@H](CO)C(=O)N[C@@H](Cc2c[nH]c3ccccc23)C(=O)N1C` [Example 7080] ({CH2CO}-[Phe(4-Cl)][NMeA]NPHE[Hyp]WSW[NMeNle][NMeNle]RCG-NH2; thioether N-14) the IC50 was 10 to 99.9 nM.
Work on `CCCC[C@H]1C(=O)N(C)[C@@H](CCCC)C(=O)N[C@@H](CCCNC(=N)N)C(=O)N[C@H](C(=O)NCC(N)=O)CSCC(=O)N[C@@H](Cc2ccc(F)cc2)C(=O)N(C)[C@@H](C)C(=O)N[C@@H](CC(N)=O)C(=O)N2CCC[C@H]2C(=O)N[C@@H](Cc2cnc[nH]2)C(=O)N[C@@H](CCC(=O)O)C(=O)N2C[C@H](O)C[C@H]2C(=O)N[C@@H](Cc2c[nH]c3ccccc23)C(=O)N[C@@H](CCN)C(=O)N[C@@H](Cc2c[nH]c3ccccc23)C(=O)N1C` [Example 7081] ({CH2CO}-[Phe(4-F)][NMeA]NPHE[Hyp]W[Dab]W[NMeNle][NMeNle]RCG-NH2; thioether N-14) yielded an IC50 of 1 to 9.9 nM.
`CCCC[C@H]1C(=O)N(C)[C@@H](CCCC)C(=O)N[C@@H](CCCNC(=N)N)C(=O)N[C@H](C(=O)NCC(N)=O)CSCC(=O)N[C@@H](Cc2ccc(F)cc2)C(=O)N(C)[C@@H](C)C(=O)N[C@@H](CC(N)=O)C(=O)N2CCC[C@H]2C(=O)N[C@@H](Cc2cnc[nH]2)C(=O)N[C@@H](CCC(=O)O)C(=O)N2C[C@H](O)C[C@H]2C(=O)N[C@@H](Cc2c[nH]c3ccccc23)C(=O)N[C@@H](CO)C(=O)N[C@@H](Cc2c[nH]c3ccccc23)C(=O)N1C` [Example 7082] ({CH2CO}-[Phe(4-F)][NMeA]NPHE[Hyp]WSW[NMeNle][NMeNle]RCG-NH2; thioether N-14) showed an IC50 of 1 to 9.9 nM.
In the case of `CCCC[C@H]1C(=O)N(C)[C@@H](CCCC)C(=O)N[C@@H](CCCNC(=O)CC)C(=O)N[C@H](C(=O)NCC(N)=O)CSCC(=O)N[C@@H](Cc2ccc(OC)cc2)C(=O)N(C)[C@@H](C)C(=O)N[C@@H](CC(N)=O)C(=O)N2CCC[C@H]2C(=O)N[C@@H](CC(N)=O)C(=O)N[C@@H](CC(C)C)C(=O)N2C[C@H](F)C[C@H]2C(=O)N[C@@H](Cc2c[nH]c3ccccc23)C(=O)N[C@@H](C)C(=O)N[C@@H](Cc2c[nH]c3ccccc23)C(=O)N1C` [Example 7083] ({CH2CO}-Y(Me)[NMeA]NPNL[Pro(trans-4-F)]WAW[NMeNle][NMeNle][Orn](Propionyl)CG-NH2; thioether N-14), the IC50 is reported as 10 to 99.9 nM.
For `CCCC[C@H]1C(=O)N(C)[C@@H](CCCC)C(=O)N[C@@H](CCCN)C(=O)N[C@H](C(=O)NCC(N)=O)CSCC(=O)N[C@@H](Cc2ccc(OC)cc2)C(=O)N(C)[C@@H](C)C(=O)N[C@@H](CC(N)=O)C(=O)N2CCC[C@H]2C(=O)N[C@@H](CC(N)=O)C(=O)N[C@@H](CC(C)C)C(=O)N2C[C@H](F)C[C@H]2C(=O)N[C@@H](Cc2c[nH]c3ccccc23)C(=O)N[C@@H](C)C(=O)N[C@@H](Cc2c[nH]c3ccccc23)C(=O)N1C` [Example 7084] ({CH2CO}-Y(Me)[NMeA]NPNL[Pro(trans-4-F)]WAW[NMeNle][NMeNle][Orn]CG-NH2; thioether N-14), the IC50 was 1 to 9.9 nM.
For `CCCC[C@H]1C(=O)N(C)[C@@H](CCCC)C(=O)N[C@@H](CCCNC(=N)N)C(=O)N[C@H](C(=O)NCC(N)=O)CSCC(=O)N[C@@H](Cc2ccc(OC)cc2)C(=O)N(C)[C@@H](C)C(=O)N[C@@H](CC(N)=O)C(=O)N2CCC[C@H]2C(=O)N[C@@H](Cc2cnc[nH]2)C(=O)N[C@@H](CCC(=O)O)C(=O)C2C[C@H](O)C[C@H]2C(=O)N[C@@H](Cc2c[nH]c3ccccc23)C(=O)N[C@@H](CCN)C(=O)N[C@@H](Cc2c[nH]c3ccccc23)C(=O)N1C` (some centres unmarked) [Example 7085] ({CH2CO}-Y(Me)[NMeA]NPH[X5]W[Dab]W[NMeNle][NMeNle]RCG-NH2; thioether N-13), the IC50 was 1 to 9.9 nM.
With `CCCC[C@H]1C(=O)N(C)[C@@H](CCCC)C(=O)N[C@@H](CCCNC(=N)N)C(=O)N[C@H](C(=O)NCC(N)=O)CSCC(=O)N[C@@H](Cc2ccc(OC)cc2)C(=O)N(C)[C@@H](C)C(=O)N[C@@H](CC(N)=O)C(=O)N2CCC[C@H]2C(=O)N[C@@H](Cc2cnc[nH]2)C(=O)N[C@@H](CCC(=O)O)C(=O)N2C[C@H](O)C[C@H]2C(=O)N[C@@H](Cc2c[nH]c3ccccc23)C(=O)N[C@@H](CO)C(=O)N[C@@H](Cc2c[nH]c3ccccc23)C(=O)N1C` [Example 7086] ({CH2CO}-Y(Me)[NMeA]NPHE[Hyp]WSW[NMeNle][NMeNle]RCG-NH2; thioether N-14) the IC50 was 1 to 9.9 nM.
For `CCCC[C@H]1C(=O)N(C)[C@@H](CCCC)C(=O)N[C@@H](CCCN)C(=O)N[C@H](C(=O)NCC(N)=O)CSCC(=O)N[C@@H](Cc2ccc(OC)cc2)C(=O)N(C)[C@@H](C)C(=O)N[C@@H](CC(N)=O)C(=O)N2CCC[C@H]2C(=O)N[C@@H](Cc2cnc[nH]2)C(=O)N[C@@H](CCC(=O)O)C(=O)C2C[C@H](O)C[C@H]2C(=O)N[C@@H](Cc2c[nH]c3ccccc23)C(=O)N[C@@H](CCN)C(=O)N[C@@H](Cc2c[nH]c3ccccc23)C(=O)N1C` (some centres unmarked) [Example 7087] ({CH2CO}-Y(Me)[NMeA]NPH[X5]W[Dab]W[NMeNle][NMeNle][Orn]CG-NH2; thioether N-13), the IC50 was 1 to 9.9 nM.
